Test results as given in US20250228785A1, “MICROCAPSULE, PREPARATION METHOD THEREFOR, AND USE THEREOF IN PREVENTING AND/OR TREATING DAMAGE TO SALIVARY GLANDS CAUSED BY RADIATION THERAPY” (CAPITAL MEDICAL UNIVERSITY, priority 2021, published 2025).
Marks after values point to notes of the source that are not given here.

Legend:
[1] = Nitrate content in the blood of mice after single gastric gavage; assay type: in vivo; settings: ICR mice, 2 mmol/kg sodium nitrate single gastric gavage
Method: A total of 40 ICR mice (male, 20±4 g) were randomly divided into 4 groups of 10 mice each. […] Blood was collected from vena caudalis at 0 h, and 2, 4, 6, 12, and 24 h after gastric gavage, respectively.

AQP5 = AQP5 expression level in submandibular gland acinar cells (immunofluorescence); assay type: in vivo; settings: SD rats, 8 weeks after radiotherapy
Excerpt: The immunofluorescence staining photographs (×20 under microscope) of the paraffin sections of the submandibular gland of the rats in each experimental group at 8 weeks after radiotherapy, and the quantitation results of the expression levels of AQP5 in the submandibular gland acinar cells in each group were shown in FIG. 10 and Table 8.

[2] = Serum biochemical detection at 8 weeks after radiotherapy; settings: SD rats, 8 weeks after submandibular gland irradiation
[3] = Nitrate content in saliva of rats after radiotherapy; assay type: in vivo; settings: SD rats, 4 and 8 weeks after radiotherapy
[4] = tested on: human submandibular gland epithelial cell line (HSG); test: RTCA cell proliferation after single X-ray irradiation with drugs; assay type: cell-based; settings: Table 5 and FIG. 7
Excerpt: 2) The proliferation plate were taken out, and the medium was refreshed. […] The cells were subjected to single X-ray (RAD SOURCE 2000) irradiation at a dose of 1.22 gy/min and a total dose of 2 gy.
3) After irradiation, detection was continuously carried out.

[5] = tested on: submandibular gland acinar cells; test: Vacuole area in submandibular gland acinar cells (HE staining); assay type: in vivo; settings: SD rats, high dose 40.5 mM, 8 weeks after radiotherapy
Excerpt: At 8 weeks after radiotherapy, the micrographs (×40) of the HE stained submandibular gland tissues of the rats in each experimental group were shown in FIG. 9A on the right of the panel of FIG. 9. See FIG. 9B on the left of the panel of FIG. 9.

[6] = tested on: human submandibular gland epithelial cell line (HSG); test: RTCA cell proliferation after addition of drugs (no irradiation); settings: microcapsules 0.25 mM, nitrate 0.5 mM
[7] = HE staining of sections of major organs (heart, liver, spleen, lung, kidney); settings: SD rats
rat salivary gland = test: Salivary flow rate of rats before and after radiotherapy; settings: SD rats
[8] = high dose 40.5 mM in drinking water
[9] = low dose 20.25 mM in drinking water

O=[N+]([O-])[O-].[Na+] [Sodium nitrate, sodium nitrate]
Nitrate content in the blood ([1]; 0 h): 41.8 µmol/L | Nitrate content in the blood ([1]; 2 h): 1052.8 µmol/L | Nitrate content in the blood ([1]; 4 h): 572.4 µmol/L | Nitrate content in the blood ([1]; 6 h): 297.4 µmol/L | Nitrate content in the blood ([1]; 12 h): 45.3 µmol/L | Nitrate content in the blood ([1]; 24 h): 32.7 µmol/L | expression level of AQP5 versus IR group (AQP5; high dose 40.5 mM): significantly different | expression level of AQP5 versus IR group (AQP5; low dose 20.25 mM): significantly different | ALP [2, 8]: 112.00 ± 19.69 U/L | ALT [2, 8]: 49.20 ± 10.30 U/L | AST [2, 8]: 116.20 ± 9.44 U/L | Alb [2, 8]: 8.66 ± 0.87 g/L | Ca [2, 8]: 2.41 ± 0.14 mmol/L | Cr [2, 8]: 46.7 ± 14.59 µmol/L | D-Bil [2, 8]: 1.8 ± 1.21 µmol/L | GGT [2, 8]: 5.00 ± 0.71 U/L | Glb [2, 8]: 45.42 ± 3.88 g/L | HDL-C [2, 8]: 2.09 ± 0.43 mmol/L | I-Bil [2, 8]: 1.73 ± 1.57 µmol/L | K [2, 8]: 5.10 ± 0.45 mmol/L | LDH [2, 8]: 747.40 ± 165.67 U/L | LDL-C [2, 8]: 0.24 ± 0.06 mmol/L | Na [2, 8]: 141.66 ± 1.62 mmol/L | P [2, 8]: 2.77 ± 1.01 mmol/L | T-Bil [2, 8]: 3.52 ± 2.00 µmol/L | TC [2, 8]: 1.87 ± 0.38 mmol/L | TCO2 [2, 8]: 30.12 ± 3.07 mmol/L | TG [2, 8]: 0.31 ± 0.38 mmol/L | TP [2, 8]: 54.08 ± 4.11 g/L | Urea [2, 8]: 5.78 ± 1.21 mmol/L | ALP [2, 9]: 95.00 ± 52.85 U/L | ALT [2, 9]: 46.60 ± 16.80 U/L | AST [2, 9]: 123.80 ± 38.49 U/L | Alb [2, 9]: 8.20 ± 1.32 g/L | Ca [2, 9]: 2.39 ± 0.09 mmol/L | Cr [2, 9]: 47.82 ± 12.95 µmol/L | D-Bil [2, 9]: 1.43 ± 0.40 µmol/L | GGT [2, 9]: 5.60 ± 0.89 U/L | Glb [2, 9]: 44.68 ± 1.80 g/L | HDL-C [2, 9]: 2.13 ± 0.71 mmol/L | I-Bil [2, 9]: 1.43 ± 1.07 µmol/L | K [2, 9]: 5.31 ± 0.48 mmol/L | LDH [2, 9]: 1212.44 ± 728.19 U/L | LDL-C [2, 9]: 0.27 ± 0.06 mmol/L | Na [2, 9]: 140.72 ± 1.47 mmol/L | P [2, 9]: 2.37 ± 0.22 mmol/L | T-Bil [2, 9]: 2.52 ± 1.37 µmol/L | TC [2, 9]: 2.05 ± 0.71 mmol/L | TCO2 [2, 9]: 30.26 ± 2.68 mmol/L | TG [2, 9]: 0.57 ± 0.42 mmol/L | TP [2, 9]: 52.88 ± 2.40 g/L | nitrate content in saliva, course after administration [3]: relatively stable | effect on proliferation of submandibular gland epithelial cells after single irradiation [4]: promote the proliferation | vacuole area in submandibular gland acinar cells as compared with IR group [5]: significantly decreased | effect on proliferation of submandibular gland epithelial cells under normal conditions [6]: promote the proliferation | effect on the organs in the body of the rats ([7]; continuous administration of 40.5 mM for 9 weeks): no significant effect | abnormality in the major organs, HE stained sections ([7]; high dose 40.5 mM, 8 weeks after radiotherapy, FIG. 12): no abnormality | salivary flow rate (rat salivary gland; high dose 40.5 mM in drinking water, 1 W after radiotherapy): 0.48 ± 0.25 ml/20 min | salivary flow rate (rat salivary gland; high dose 40.5 mM in drinking water, 2 W after radiotherapy): 1.12 ± 0.20^a ml/20 min | salivary flow rate (rat salivary gland; high dose 40.5 mM in drinking water, 4 W after radiotherapy): 0.91 ± 0.17^a ml/20 min | salivary flow rate (rat salivary gland; high dose 40.5 mM in drinking water, 6 W after radiotherapy): 0.80 ± 0.09^a ml/20 min | salivary flow rate (rat salivary gland; high dose 40.5 mM in drinking water, 8 W after radiotherapy): 0.81 ± 0.13 ml/20 min | salivary flow rate (rat salivary gland; high dose 40.5 mM in drinking water, first column 1 W (1 week before radiotherapy)): 1.37 ± 0.24 ml/20 min | salivary flow rate (rat salivary gland; low dose 20.25 mM in drinking water, 1 W after radiotherapy): 0.60 ± 0.25 ml/20 min | salivary flow rate (rat salivary gland; low dose 20.25 mM in drinking water, 2 W after radiotherapy): 0.95 ± 0.01^a ml/20 min | salivary flow rate (rat salivary gland; low dose 20.25 mM in drinking water, 4 W after radiotherapy): 0.82 ± 0.21^a ml/20 min | salivary flow rate (rat salivary gland; low dose 20.25 mM in drinking water, 6 W after radiotherapy): 0.74 ± 0.12 ml/20 min | salivary flow rate (rat salivary gland; low dose 20.25 mM in drinking water, 8 W after radiotherapy): 0.76 ± 0.09 ml/20 min | salivary flow rate (rat salivary gland; low dose 20.25 mM in drinking water, first column 1 W (1 week before radiotherapy)): 1.34 ± 0.26 ml/20 min

O=C1O[C@H]([C@@H](O)CO)C(O)=C1O [Vc, vitamin C]
effect on proliferation of submandibular gland epithelial cells after single irradiation [4]: promote the proliferation
